Measured values taken from ChEMBL document CHEMBL5360542, “Current development of β-carboline derived potential antimalarial scaffolds” (Eur J Med Chem, 2023).

How the values were obtained:
Format in all cases: functional, organism-based
Plasmodium falciparum [1] = experiment: Antimalarial activity against Plasmodium falciparum 3D7 infected in human A positive erythrocytes assessed as reduction in parasite growth incubated for 24 hrs by [3H]hypoxanthine based scintillation counting analysis; conditions: 3D7, Erythrocyte
Plasmodium falciparum [2] = experiment: Antimalarial activity against chloroquine-resistant Plasmodium falciparum K1 infected in human A positive erythrocytes assessed as reduction in parasite growth incubated for 24 hrs by [3H]hypoxanthine based scintillation counting analysis; conditions: K1, Erythrocyte
Plasmodium falciparum [3] = experiment: Antimalarial activity against Plasmodium falciparum INDO infected in erythrocytes assessed as inhibition of parasite growth incubated for 48 hrs by SYBR-Green I fluorescence-based assay; conditions: Erythrocyte
Plasmodium falciparum [4] = experiment: Antimalarial activity against Plasmodium falciparum 3D7 infected in erythrocytes assessed as inhibition of parasite growth incubated for 48 hrs by SYBR-Green I fluorescence-based assay; conditions: 3D7, Erythrocyte
Plasmodium falciparum [5] = experiment: Antimalarial activity against chloroquine-resistant Plasmodium falciparum FcB1 assessed as inhibition of parasite growth
Plasmodium falciparum [6] = experiment: Antiplasmodial activity against chloroquine-sensitive erythrocyte stage Plasmodium falciparum 3D7 assessed as inhibition of parasite growth incubated for 3 days by ELISA; conditions: 3D7, Erythrocyte, 72 h
Plasmodium falciparum [7] = experiment: Antiplasmodial activity against chloroquine-resistant erythrocyte stage Plasmodium falciparum Dd2 assessed as inhibition of parasite growth incubated for 3 days by ELISA; conditions: 72 h
Plasmodium falciparum [8] = experiment: Antimalarial activity against chloroquine-resistant Plasmodium falciparum K1 assessed as reduction in parasite growth incubated for 72 hrs by ELISA; conditions: K1, 72 h
Plasmodium falciparum [9] = experiment: Antimalarial activity against chloroquine-resistant Plasmodium falciparum K1 assessed as reduction in parasite growth
Plasmodium falciparum [10] = experiment: Antimalarial activity against chloroquine-sensitive Plasmodium falciparum 3D7 assessed as reduction in parasite growth
Plasmodium falciparum [11] = experiment: Antimalarial activity against chloroquine-sensitive Plasmodium falciparum D10 transfected in human type A-positive RBC cells assessed reduction in parasite growth by measuring LDH activity incubated for 72 hrs by spectrophotometric analysis
Plasmodium falciparum [12] = experiment: Antimalarial activity against chloroquine-resistant Plasmodium falciparum W2 transfected in human type A-positive RBC cells assessed reduction in parasite growth by measuring LDH activity incubated for 72 hrs by spectrophotometric analysis
Plasmodium falciparum [13] = experiment: Antimalarial activity against chloroquine-resistant Plasmodium falciparum K1
Plasmodium falciparum [14] = experiment: Antiplasmodial activity against multi-resistant Plasmodium falciparum W2 infected in erythrocytes assessed as inhibition of parasite growth incubated for 48 hrs by flow cytometry; conditions: W2, Erythrocyte
[15] = Plasmodium falciparum, D10, Erythrocyte, 72 h
[16] = Plasmodium falciparum, W2, Erythrocyte, 72 h

**Q.** With `Clc1ccc2[nH]c3c(NCCN4CCOCC4)nccc3c2c1` as the compound, how does the IC50 (Plasmodium falciparum [1]) read?
**A.** The IC50 was 2.35 µM.

**Q.** What about the IC50 (Plasmodium falciparum [2]) of the same compound?
**A.** The IC50 was 4.95 µM.

**Q.** Which results are given for `CCOC(=O)c1cc2c([nH]c3ccccc32)c(-c2ccc(NS(=O)(=O)c3ccc(C)cc3)cc2)n1`?
**A.** IC50 (Plasmodium falciparum [3]): 1.9 µM; IC50 (Plasmodium falciparum [4]): 3.7 µM

**Q.** For `CCOC(=O)c1cc2c([nH]c3ccccc32)c(-c2ccc(NC(=O)C(C)(C)C)cc2)n1`, which IC50 (Plasmodium falciparum [3]) is on record?
**A.** Its IC50 is 2.38 µM.

**Q.** And the IC50 (Plasmodium falciparum [4])?
**A.** The IC50 was 3.5 µM.

**Q.** For `c1ccc2c(CC3NCCc4c3[nH]c3ccccc43)c[nH]c2c1` (stereo unspecified), which IC50 (Plasmodium falciparum [5]) is on record?
**A.** The IC50 was 9.6 µM.

**Q.** How did the IC50 (Plasmodium falciparum [6]) turn out when `C/C(=C\c1ccccc1)C(=O)NCCOc1ccc2c(c1)[nH]c1c(C)nccc12` was run?
**A.** The IC50 was 6.78 µM.

**Q.** What about the IC50 (Plasmodium falciparum [7]) of the same compound?
**A.** Its IC50 is 19.5 µM.

**Q.** `CC#CCN1CCc2c([nH]c3ccccc23)C1CC(=O)OCC` (stereo unspecified) was tested. Which IC50 (Plasmodium falciparum [8]) did it give?
**A.** The IC50 was 13.8 µM.

**Q.** What does the source list for `COC(=O)c1cc2c3ccccc3n3c2c(n1)C(c1ccccc1)OC(C)=C3` (stereo unspecified)?
**A.** IC50 (Plasmodium falciparum [9]): > 5 µM; IC50 (Plasmodium falciparum [10]): > 5 µM

**Q.** How did the IC50 (Plasmodium falciparum [10]) turn out when `COC(=O)c1cc2c3ccccc3n3c2c(n1)COC(C)=C3` was run?
**A.** The IC50 was > 5 µM.

**Q.** Which IC50 (Plasmodium falciparum [3]) does the source give for `CCOC(=O)c1cc2c([nH]c3ccccc32)c(-c2ccc(/N=C(/Nc3ccc(OC(F)(F)F)cc3)NC3CC3)cc2)n1` here?
**A.** The IC50 was 0.77 µM.

**Q.** What about the IC50 (Plasmodium falciparum [4]) of the same compound?
**A.** The IC50 was 1 µM.

**Q.** For `CCOC(=O)CC1c2c(c3ccccc3n2C(=O)OC(C)(C)C)CCN1C(=O)OCc1ccccc1` (stereo unspecified), which IC50 (Plasmodium falciparum [8]) is on record?
**A.** The IC50 was 15.5 µM.

**Q.** What does the source list for `Clc1ccc2[nH]c3c(N4CCC(N5CCOCC5)CC4)nccc3c2c1`?
**A.** IC50 (Plasmodium falciparum [1]): 5.32 µM; IC50 (Plasmodium falciparum [2]): 1.9 µM

**Q.** With `COc1ccc2c3ccnc(C)c3n(CCNC(=O)/C=C/c3ccc(Cl)cc3)c2c1` as the compound, how does the IC50 (Plasmodium falciparum [6]) read?
**A.** The IC50 was 0.04 µM.

**Q.** And the IC50 (Plasmodium falciparum [7])?
**A.** Its IC50 is 0.17 µM.

**Q.** Which IC50 (Plasmodium falciparum [11]; [15]) does the source give for `O=C(NCCCN1CCOCC1)C1Cc2c([nH]c3ccccc23)C(c2ccc(Cl)cc2)N1` (stereo unspecified) here?
**A.** Its IC50 is 11.5 µM.

**Q.** And the IC50 (Plasmodium falciparum [12]; [16])?
**A.** The IC50 was 6.15 µM.

**Q.** How did the IC50 (Plasmodium falciparum [8]) turn out when `CCOC(=O)CC1c2[nH]c3ccccc3c2CCN1S(=O)(=O)c1ccc(C)cc1` (stereo unspecified) was run?
**A.** Its IC50 is 13.8 µM.

**Q.** For `Clc1ccc2[nH]c3c(NCCCn4ccnc4)nccc3c2c1`, which IC50 (Plasmodium falciparum [1]) is on record?
**A.** The IC50 was 0.45 µM.

**Q.** And the IC50 (Plasmodium falciparum [2])?
**A.** The IC50 was 0.92 µM.

**Q.** For `CCC1NC(C(=O)NC23CC4CC(CC(C4)C2)C3)Cc2c1[nH]c1ccccc21` (stereo unspecified), which IC50 (Plasmodium falciparum [11]; [15]) is on record?
**A.** The IC50 was 9.73 µM.

**Q.** What about the IC50 (Plasmodium falciparum [12]; [16]) of the same compound?
**A.** Its IC50 is 11.4 µM.

**Q.** How did the IC50 (Plasmodium falciparum [9]) turn out when `COC(=O)c1cc2c3cc(Cl)ccc3n3c2c(n1)COC(C)=C3` was run?
**A.** The IC50 was 2.45 µM.

**Q.** And the IC50 (Plasmodium falciparum [10])?
**A.** The IC50 was 1.78 µM.

**Q.** Which results are given for `Cc1nccc2c1[nH]c1cc(OCCNC(=O)/C=C/c3ccccc3F)ccc12`?
**A.** IC50 (Plasmodium falciparum [6]): 0.93 µM; IC50 (Plasmodium falciparum [7]): 3.92 µM

**Q.** For `COC(=O)C1Cc2c([nH]c3ccccc23)C(Cc2c[nH]c3ccccc23)N1` (stereo unspecified), which IC50 (Plasmodium falciparum [5]) is on record?
**A.** The IC50 was 17.2 µM.

**Q.** Which results are given for `CCOC(=O)c1cc2c([nH]c3ccccc32)c(-c2ccc(/N=C(/Nc3ccc(OC)cc3)NC3CC3)cc2)n1`?
**A.** IC50 (Plasmodium falciparum [3]): 1.2 µM; IC50 (Plasmodium falciparum [4]): 7.6 µM

**Q.** `CC(C)(C)OC(=O)n1c2c(c3ccccc31)CCN(C(=O)OCc1ccccc1)C2CCO` (stereo unspecified) was tested. Which IC50 (Plasmodium falciparum [13]) did it give?
**A.** Its IC50 is 21.4 µM.

**Q.** Which IC50 (Plasmodium falciparum [3]) does the source give for `CCOC(=O)c1cc2c([nH]c3ccccc32)c(-c2ccc(NC(=S)Nc3ccc(OC(F)(F)F)cc3)cc2)n1` here?
**A.** The IC50 was 0.39 µM.

**Q.** What about the IC50 (Plasmodium falciparum [4]) of the same compound?
**A.** Its IC50 is 18.7 µM.

**Q.** What does the source list for `CCN(CC)CCCC(C)Nc1nccc2c1[nH]c1ccc(Cl)cc12` (stereo unspecified)?
**A.** IC50 (Plasmodium falciparum [1]): 0.17 µM; IC50 (Plasmodium falciparum [2]): 0.24 µM

**Q.** With `Cc1nccc2c1[nH]c1cc(OCCNC(=O)/C=C/c3ccc(Cl)cc3)ccc12` as the compound, how does the IC50 (Plasmodium falciparum [6]) read?
**A.** Its IC50 is 0.32 µM.

**Q.** And the IC50 (Plasmodium falciparum [7])?
**A.** The IC50 was 0.4 µM.

**Q.** `Cc1nccc2c1[nH]c1cc(OCCNC(=O)/C=C/c3ccc(F)cc3)ccc12` was tested. Which IC50 (Plasmodium falciparum [6]) did it give?
**A.** The IC50 was 0.15 µM.

**Q.** And the IC50 (Plasmodium falciparum [7])?
**A.** The IC50 was 0.69 µM.

**Q.** For `Cc1nccc2c1[nH]c1cc(OCCNC(=O)/C=C/c3ccccc3)ccc12`, which IC50 (Plasmodium falciparum [6]) is on record?
**A.** The IC50 was 0.98 µM.

**Q.** What about the IC50 (Plasmodium falciparum [7]) of the same compound?
**A.** Its IC50 is 4.7 µM.

**Q.** Which IC50 (Plasmodium falciparum [11]; [15]) does the source give for `CC(C)(C)CC(C)(C)NC(=O)C1Cc2c([nH]c3ccccc23)C(c2ccc(Cl)cc2)N1` (stereo unspecified) here?
**A.** Its IC50 is 8.41 µM.

**Q.** What about the IC50 (Plasmodium falciparum [12]; [16]) of the same compound?
**A.** The IC50 was 6.41 µM.

**Q.** How did the IC50 (Plasmodium falciparum [10]) turn out when `C/C=C\CC1OC(C)=Cn2c3ccccc3c3cc(C(=O)OC)nc1c32` (stereo unspecified) was run?
**A.** The IC50 was > 5 µM.

**Q.** Which IC50 (Plasmodium falciparum [6]) does the source give for `COc1ccc2c3ccnc(C)c3n(CCNC(=O)/C=C/c3ccccc3)c2c1` here?
**A.** The IC50 was 0.49 µM.

**Q.** And the IC50 (Plasmodium falciparum [7])?
**A.** Its IC50 is 1.11 µM.

**Q.** For `C=C(C#N)C1OC(C)=Cn2c3ccccc3c3cc(C(=O)OC)nc1c32` (stereo unspecified), which IC50 (Plasmodium falciparum [10]) is on record?
**A.** The IC50 was > 5 µM.

**Q.** Which IC50 (Plasmodium falciparum [13]) does the source give for `CC#CCN1CCc2c(n(C(=O)OC(C)(C)C)c3ccccc23)C1CC(=O)OCC` (stereo unspecified) here?
**A.** Its IC50 is 29.8 µM.

**Q.** How did the IC50 (Plasmodium falciparum [9]) turn out when `C=CCC1OC(C)=Cn2c3ccc(Cl)cc3c3cc(C(=O)OC)nc1c32` (stereo unspecified) was run?
**A.** The IC50 was > 5 µM.

**Q.** And the IC50 (Plasmodium falciparum [10])?
**A.** The IC50 was > 5 µM.

**Q.** `CCOC(=O)c1cc2c([nH]c3ccccc32)c(-c2ccc(NC(=S)Nc3ccc(OC)cc3)cc2)n1` was tested. Which IC50 (Plasmodium falciparum [3]) did it give?
**A.** Its IC50 is 1.8 µM.

**Q.** And the IC50 (Plasmodium falciparum [4])?
**A.** Its IC50 is 1.6 µM.

**Q.** `Fc1ccc2[nH]c3c(NCCCn4ccnc4)nccc3c2c1` was tested. Which IC50 (Plasmodium falciparum [1]) did it give?
**A.** The IC50 was 0.2 µM.

**Q.** And the IC50 (Plasmodium falciparum [2])?
**A.** Its IC50 is 0.41 µM.

**Q.** How did the IC50 (Plasmodium falciparum [14]) turn out when `N#Cc1ccc(C2NCCc3c2[nH]c2ccccc32)cc1` (stereo unspecified) was run?
**A.** The IC50 was 1.1 µM.

**Q.** With `O=C(NC1CCCCC1)C1Cc2c([nH]c3ccccc23)C(c2ccc(Cl)cc2)N1` (racemic; form 1) as the compound, how does the IC50 (Plasmodium falciparum [11]; [15]) read?
**A.** The IC50 was 16.1 µM.

**Q.** And the IC50 (Plasmodium falciparum [12]; [16])?
**A.** Its IC50 is 13.5 µM.

**Q.** What does the source list for `O=C(NC1CCCCC1)C1Cc2c([nH]c3ccccc23)C(c2ccc(Cl)cc2)N1` (racemic; form 2)?
**A.** IC50 (Plasmodium falciparum [11]; rbc): 12.5 µM; IC50 (Plasmodium falciparum [12]; rbc): 9.13 µM

**Q.** For `Nc1nccc(-c2nccc3c2[nH]c2ccccc23)n1` [ANNOMONTINE], which IC50 (Plasmodium falciparum [3]) is on record?
**A.** The IC50 was 3.06 µM.

**Q.** And the IC50 (Plasmodium falciparum [4])?
**A.** The IC50 was 3.44 µM.

**Q.** How did the IC50 (Plasmodium falciparum [5]) turn out when `O=C(c1c[nH]c2ccc(O)cc12)c1nccc2c1[nH]c1ccc(O)cc12` [HYRTIOSULAWESINE] was run?
**A.** The IC50 was 1.3 µM.
